Results from the kinase profiling compilation of Christmann-Franck et al. (2016).

What was measured:
Experiment in all cases: KINOMEscan competition binding
Conditions in all cases: compound 10.0 µM
[1] = target: TYK2 JH1 catalytic (human) (UniProt P29597)
STK32B (human) = STK32B (human) (UniProt Q9NY57)
DAPK1 (human) = DAPK1 (human) (UniProt P53355)
EPHA4 (human) = EPHA4 (human) (UniProt P54764)
STK17B (human) = STK17B (human) (UniProt O94768)
CDK9 (human) = CDK9 (human) (UniProt P50750)
SYK (human) = SYK (human) (UniProt P43405)
PKN3 (M.tuberculosis) = PKN3 (M.tuberculosis) (UniProt Q6P5Z2)
PRKX (human) = PRKX (human) (UniProt P51817)
MAPKAPK2 (human) = MAPKAPK2 (human) (UniProt P49137)
PIK3CD (human) = PIK3CD (human) (UniProt O00329)
CAMK1D (human) = CAMK1D (human) (UniProt Q8IU85)
PIM3 (human) = PIM3 (human) (UniProt Q86V86)
FLT4 (human) = FLT4 (human) (UniProt P35916)
[2] = test system: PIK3CA (human), P42336 [E545A]
ACVR2B (human) = ACVR2B (human) (UniProt Q13705)
FGFR3 (human) = FGFR3 (human) (UniProt P22607)
WEE2 (human) = WEE2 (human) (UniProt P0C1S8)
MYLK2 (human) = MYLK2 (human) (UniProt Q9H1R3)
PRKCH (human) = PRKCH (human) (UniProt P24723)
GRK7 (human) = GRK7 (human) (UniProt Q8WTQ7)
MKNK2 (human) = MKNK2 (human) (UniProt Q9HBH9)
NLK (human) = NLK (human) (UniProt Q9UBE8)
RIOK1 (human) = RIOK1 (human) (UniProt Q9BRS2)
TEK (human) = TEK (human) (UniProt Q02763)
ULK2 (human) = ULK2 (human) (UniProt Q8IYT8)
LCK (human) = LCK (human) (UniProt P06239)
PAK7 (human) = PAK7 (human) (UniProt Q9P286)
CDK4 CCND3 (human) = CDK4 CCND3 (human) (UniProt P11802+P30281)
RPS6KA1 KD2 (human) = RPS6KA1 KD2 (human) (UniProt Q15418)
[3] = target: JAK2 JH1 catalytic (human) (UniProt O60674)
MAK (human) = MAK (human) (UniProt P20794)
NEK4 (human) = NEK4 (human) (UniProt P51957)
MELK (human) = MELK (human) (UniProt Q14680)
MARK1 (human) = MARK1 (human) (UniProt Q9P0L2)
MAP4K4 (human) = MAP4K4 (human) (UniProt O95819)
AURKB (human) = AURKB (human) (UniProt Q96GD4)
ERBB4 (human) = ERBB4 (human) (UniProt Q15303)
MAPK6 (human) = MAPK6 (human) (UniProt Q16659)
PKN1 (human) = PKN1 (human) (UniProt Q16512)
CHEK2 (human) = CHEK2 (human) (UniProt O96017)

Sequence of ULK2 (human) (Q8IYT8 whole entry, looked up): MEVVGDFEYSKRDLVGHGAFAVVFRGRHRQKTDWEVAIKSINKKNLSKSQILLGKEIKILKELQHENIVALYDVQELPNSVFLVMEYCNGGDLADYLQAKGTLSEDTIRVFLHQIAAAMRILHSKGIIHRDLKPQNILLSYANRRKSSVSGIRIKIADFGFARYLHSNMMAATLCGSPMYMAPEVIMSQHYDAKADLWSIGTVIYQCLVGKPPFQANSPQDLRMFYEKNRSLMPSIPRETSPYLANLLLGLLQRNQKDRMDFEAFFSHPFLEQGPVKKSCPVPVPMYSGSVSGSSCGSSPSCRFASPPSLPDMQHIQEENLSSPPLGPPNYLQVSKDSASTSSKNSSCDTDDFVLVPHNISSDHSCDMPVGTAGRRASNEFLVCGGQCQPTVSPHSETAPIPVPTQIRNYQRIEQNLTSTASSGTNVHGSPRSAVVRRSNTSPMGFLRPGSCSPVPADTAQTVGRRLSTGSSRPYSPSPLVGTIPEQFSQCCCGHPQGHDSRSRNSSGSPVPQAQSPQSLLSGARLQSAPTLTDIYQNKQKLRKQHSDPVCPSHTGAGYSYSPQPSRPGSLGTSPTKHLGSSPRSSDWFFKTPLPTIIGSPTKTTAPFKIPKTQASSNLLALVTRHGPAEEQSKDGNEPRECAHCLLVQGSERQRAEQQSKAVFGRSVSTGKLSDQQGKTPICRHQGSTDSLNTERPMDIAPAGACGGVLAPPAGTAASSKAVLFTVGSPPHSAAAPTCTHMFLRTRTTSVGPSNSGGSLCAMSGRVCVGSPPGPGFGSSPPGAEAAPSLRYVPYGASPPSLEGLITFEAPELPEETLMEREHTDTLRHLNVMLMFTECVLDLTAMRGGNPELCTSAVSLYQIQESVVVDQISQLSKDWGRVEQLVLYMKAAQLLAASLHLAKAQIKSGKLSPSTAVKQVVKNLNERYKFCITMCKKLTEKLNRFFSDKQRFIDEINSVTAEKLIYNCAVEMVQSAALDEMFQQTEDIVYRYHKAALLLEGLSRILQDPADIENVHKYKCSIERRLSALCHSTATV
Sequence of STK32B (human) (Q9NY57 whole entry, looked up): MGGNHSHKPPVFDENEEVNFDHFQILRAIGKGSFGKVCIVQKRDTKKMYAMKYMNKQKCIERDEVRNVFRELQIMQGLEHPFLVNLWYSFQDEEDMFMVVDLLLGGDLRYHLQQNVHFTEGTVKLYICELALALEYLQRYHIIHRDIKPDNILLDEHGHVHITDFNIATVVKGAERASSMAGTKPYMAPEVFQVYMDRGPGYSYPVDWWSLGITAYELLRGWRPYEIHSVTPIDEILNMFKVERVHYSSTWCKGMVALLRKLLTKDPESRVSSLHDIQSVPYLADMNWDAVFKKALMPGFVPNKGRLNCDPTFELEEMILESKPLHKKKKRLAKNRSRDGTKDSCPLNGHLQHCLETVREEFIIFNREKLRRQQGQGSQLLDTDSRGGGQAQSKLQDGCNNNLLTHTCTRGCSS
Sequence of TYK2 JH1 catalytic (human) (P29597 whole entry, looked up): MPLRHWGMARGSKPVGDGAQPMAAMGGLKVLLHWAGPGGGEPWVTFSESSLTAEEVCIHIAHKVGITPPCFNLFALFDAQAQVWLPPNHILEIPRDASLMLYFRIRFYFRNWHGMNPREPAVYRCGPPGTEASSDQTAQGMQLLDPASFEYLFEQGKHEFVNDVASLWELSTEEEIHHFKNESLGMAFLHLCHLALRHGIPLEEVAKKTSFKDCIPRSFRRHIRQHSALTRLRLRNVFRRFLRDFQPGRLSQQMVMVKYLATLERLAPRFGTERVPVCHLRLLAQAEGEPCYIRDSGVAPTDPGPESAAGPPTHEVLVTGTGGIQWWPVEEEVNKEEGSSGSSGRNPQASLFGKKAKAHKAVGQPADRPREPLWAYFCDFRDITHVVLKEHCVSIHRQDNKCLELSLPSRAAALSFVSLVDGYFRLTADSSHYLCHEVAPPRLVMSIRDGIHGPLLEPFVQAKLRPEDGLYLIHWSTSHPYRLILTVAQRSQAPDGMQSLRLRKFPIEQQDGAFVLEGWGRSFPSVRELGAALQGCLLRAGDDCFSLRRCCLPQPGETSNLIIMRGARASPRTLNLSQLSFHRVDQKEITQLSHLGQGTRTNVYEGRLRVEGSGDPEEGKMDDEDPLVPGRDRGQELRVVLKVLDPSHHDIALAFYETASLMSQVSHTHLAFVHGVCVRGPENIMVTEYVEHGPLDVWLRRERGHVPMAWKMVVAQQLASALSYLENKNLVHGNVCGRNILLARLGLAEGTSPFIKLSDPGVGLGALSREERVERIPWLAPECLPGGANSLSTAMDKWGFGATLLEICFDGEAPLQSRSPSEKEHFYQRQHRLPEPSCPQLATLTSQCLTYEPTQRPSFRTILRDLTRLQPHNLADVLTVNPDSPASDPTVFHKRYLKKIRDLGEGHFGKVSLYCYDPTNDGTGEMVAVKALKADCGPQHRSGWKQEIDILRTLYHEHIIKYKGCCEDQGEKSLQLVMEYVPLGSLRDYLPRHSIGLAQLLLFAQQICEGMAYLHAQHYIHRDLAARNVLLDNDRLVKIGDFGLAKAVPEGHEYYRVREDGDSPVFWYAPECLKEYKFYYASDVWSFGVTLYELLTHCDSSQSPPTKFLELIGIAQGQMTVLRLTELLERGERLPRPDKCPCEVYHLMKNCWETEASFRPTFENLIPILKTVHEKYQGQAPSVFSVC
Sequence of CDK9 (human) (P50750 whole entry, looked up): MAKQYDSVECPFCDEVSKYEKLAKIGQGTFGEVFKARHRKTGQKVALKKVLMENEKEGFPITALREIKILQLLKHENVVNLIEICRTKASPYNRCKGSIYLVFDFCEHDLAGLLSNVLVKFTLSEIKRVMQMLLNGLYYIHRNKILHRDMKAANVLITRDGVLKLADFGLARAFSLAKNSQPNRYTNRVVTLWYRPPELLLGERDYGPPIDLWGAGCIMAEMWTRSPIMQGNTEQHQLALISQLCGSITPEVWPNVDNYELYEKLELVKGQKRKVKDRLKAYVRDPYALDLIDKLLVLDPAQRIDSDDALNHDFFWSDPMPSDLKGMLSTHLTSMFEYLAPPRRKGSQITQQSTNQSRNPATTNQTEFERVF
Sequence of PRKCH (human) (P24723 whole entry, looked up): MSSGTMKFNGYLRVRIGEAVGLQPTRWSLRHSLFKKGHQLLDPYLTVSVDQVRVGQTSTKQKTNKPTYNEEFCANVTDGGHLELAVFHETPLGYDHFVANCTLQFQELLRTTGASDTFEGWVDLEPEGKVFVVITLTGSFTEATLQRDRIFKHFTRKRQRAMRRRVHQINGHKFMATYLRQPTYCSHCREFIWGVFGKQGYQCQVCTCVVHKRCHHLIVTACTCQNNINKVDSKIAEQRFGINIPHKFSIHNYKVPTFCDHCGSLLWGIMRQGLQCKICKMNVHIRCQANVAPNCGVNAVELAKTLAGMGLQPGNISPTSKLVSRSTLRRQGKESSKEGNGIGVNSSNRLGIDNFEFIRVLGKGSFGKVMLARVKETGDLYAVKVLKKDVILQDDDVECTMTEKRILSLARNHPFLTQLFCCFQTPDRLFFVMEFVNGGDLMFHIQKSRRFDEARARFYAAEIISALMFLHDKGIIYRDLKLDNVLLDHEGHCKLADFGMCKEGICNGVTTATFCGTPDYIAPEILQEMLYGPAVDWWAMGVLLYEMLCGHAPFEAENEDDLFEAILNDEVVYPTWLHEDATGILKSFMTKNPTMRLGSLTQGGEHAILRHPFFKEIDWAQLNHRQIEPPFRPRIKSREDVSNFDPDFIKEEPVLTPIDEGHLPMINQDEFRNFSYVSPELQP
Sequence of RIOK1 (human) (Q9BRS2 whole entry, looked up): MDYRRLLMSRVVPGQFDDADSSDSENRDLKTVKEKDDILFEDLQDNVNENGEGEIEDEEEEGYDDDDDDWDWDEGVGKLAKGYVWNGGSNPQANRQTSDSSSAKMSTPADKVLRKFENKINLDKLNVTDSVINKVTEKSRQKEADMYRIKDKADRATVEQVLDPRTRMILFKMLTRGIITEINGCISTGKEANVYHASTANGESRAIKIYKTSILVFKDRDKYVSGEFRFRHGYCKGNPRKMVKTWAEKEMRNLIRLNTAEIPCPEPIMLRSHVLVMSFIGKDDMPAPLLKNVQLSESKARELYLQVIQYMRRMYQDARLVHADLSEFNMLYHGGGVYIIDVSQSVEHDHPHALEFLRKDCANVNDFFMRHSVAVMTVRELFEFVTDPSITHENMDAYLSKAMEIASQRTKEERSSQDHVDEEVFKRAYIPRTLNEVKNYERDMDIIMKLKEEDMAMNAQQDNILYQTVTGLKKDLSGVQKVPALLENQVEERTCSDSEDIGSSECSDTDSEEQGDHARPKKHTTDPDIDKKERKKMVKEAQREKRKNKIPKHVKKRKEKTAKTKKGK
Sequence of STK17B (human) (O94768 whole entry, looked up): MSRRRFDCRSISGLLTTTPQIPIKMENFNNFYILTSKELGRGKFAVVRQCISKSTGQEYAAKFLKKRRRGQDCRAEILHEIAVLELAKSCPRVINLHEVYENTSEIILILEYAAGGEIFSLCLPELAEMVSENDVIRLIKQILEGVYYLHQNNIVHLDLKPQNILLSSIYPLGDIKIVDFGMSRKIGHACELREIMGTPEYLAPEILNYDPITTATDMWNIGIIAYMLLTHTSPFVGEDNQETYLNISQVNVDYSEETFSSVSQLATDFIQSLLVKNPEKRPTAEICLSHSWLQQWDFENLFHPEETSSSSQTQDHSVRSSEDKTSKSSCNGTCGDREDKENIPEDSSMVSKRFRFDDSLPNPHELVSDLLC
Sequence of AURKB (human) (Q96GD4 whole entry, looked up): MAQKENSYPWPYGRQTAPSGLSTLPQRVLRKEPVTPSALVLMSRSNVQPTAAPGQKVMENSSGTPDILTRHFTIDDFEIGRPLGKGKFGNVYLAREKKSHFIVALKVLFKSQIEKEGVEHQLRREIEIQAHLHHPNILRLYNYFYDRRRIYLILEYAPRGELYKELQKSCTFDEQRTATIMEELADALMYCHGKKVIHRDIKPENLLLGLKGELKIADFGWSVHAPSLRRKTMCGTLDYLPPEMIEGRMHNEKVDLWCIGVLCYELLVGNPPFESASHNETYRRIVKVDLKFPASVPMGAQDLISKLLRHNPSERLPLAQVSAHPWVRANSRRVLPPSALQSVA

Q: Which results are given for `COC(=O)Nc1ccc(-c2nc(N3CCOCC3)c3cnn(C4CCN(C(=O)OC)CC4)c3n2)cc1`?
A: kinase still bound, per cent of control [1]: 100%; kinase still bound, per cent of control (STK32B (human)): 100%; kinase still bound, per cent of control (DAPK1 (human)): 100%; kinase still bound, per cent of control (EPHA4 (human)): 88%; kinase still bound, per cent of control (STK17B (human)): 75%; per cent of control (CDK9 (human)): 100%; kinase still bound, per cent of control (SYK (human)): 83%; kinase still bound, per cent of control (PKN3 (M.tuberculosis)): 73%; kinase still bound, per cent of control (PRKX (human)): 100%; kinase still bound, per cent of control (MAPKAPK2 (human)): 100%; kinase still bound, per cent of control (PIK3CD (human)): 40%; kinase still bound, per cent of control (CAMK1D (human)): 85%; kinase still bound, per cent of control (PIM3 (human)): 100%; kinase still bound, per cent of control (FLT4 (human)): 92%; kinase still bound, per cent of control [2]: 5.5%; kinase still bound, per cent of control (ACVR2B (human)): 100%; kinase still bound, per cent of control (FGFR3 (human)): 99%; kinase still bound, per cent of control (WEE2 (human)): 95%; kinase still bound, per cent of control (MYLK2 (human)): 100%; kinase still bound, per cent of control (PRKCH (human)): 92%; kinase still bound, per cent of control (GRK7 (human)): 100%; kinase still bound, per cent of control (MKNK2 (human)): 40%; kinase still bound, per cent of control (NLK (human)): 99%; kinase still bound, per cent of control (RIOK1 (human)): 92%; kinase still bound, per cent of control (TEK (human)): 100%; kinase still bound, per cent of control (ULK2 (human)): 99%; kinase still bound, per cent of control (LCK (human)): 88%; kinase still bound, per cent of control (PAK7 (human)): 80%; per cent of control (CDK4 CCND3 (human)): 100%; kinase still bound, per cent of control (RPS6KA1 KD2 (human)): 100%; kinase still bound, per cent of control [3]: 73%; kinase still bound, per cent of control (MAK (human)): 100%; kinase still bound, per cent of control (NEK4 (human)): 90%; kinase still bound, per cent of control (MELK (human)): 86%; kinase still bound, per cent of control (MARK1 (human)): 100%; kinase still bound, per cent of control (MAP4K4 (human)): 88%; kinase still bound, per cent of control (AURKB (human)): 100%; kinase still bound, per cent of control (ERBB4 (human)): 98%; kinase still bound, per cent of control (MAPK6 (human)): 100%; kinase still bound, per cent of control (PKN1 (human)): 97%; kinase still bound, per cent of control (CHEK2 (human)): 100%

Q: How did the kinase still bound, per cent of control [1] turn out when `CC(C)n1nc(-c2cc3cc(O)ccc3[nH]2)c2c(N)ncnc21` was run?
A: 8.2%

Q: And the kinase still bound, per cent of control (STK32B (human))?
A: 8.2%

Q: What about the kinase still bound, per cent of control (DAPK1 (human)) of the same molecule?
A: 3%

Q: And the kinase still bound, per cent of control (EPHA4 (human))?
A: 36%

Q: What about the kinase still bound, per cent of control (STK17B (human)) of the same molecule?
A: 40%

Q: And the per cent of control (CDK9 (human))?
A: 96%

Q: What about the kinase still bound, per cent of control (SYK (human)) of the same molecule?
A: 100%

Q: What about the kinase still bound, per cent of control (PKN3 (M.tuberculosis)) of the same molecule?
A: 24%

Q: And the kinase still bound, per cent of control (PRKX (human))?
A: 100%

Q: What about the kinase still bound, per cent of control (MAPKAPK2 (human)) of the same molecule?
A: 100%

Q: And the kinase still bound, per cent of control (PIM3 (human))?
A: 31%

Q: And the kinase still bound, per cent of control (FLT4 (human))?
A: 0.3%

Q: What about the kinase still bound, per cent of control (ACVR2B (human)) of the same molecule?
A: 2%

Q: What about the kinase still bound, per cent of control (FGFR3 (human)) of the same molecule?
A: 9.2%

Q: And the kinase still bound, per cent of control (WEE2 (human))?
A: 100%

Q: And the kinase still bound, per cent of control (MYLK2 (human))?
A: 43%

Q: What about the kinase still bound, per cent of control (PRKCH (human)) of the same molecule?
A: 10%

Q: And the kinase still bound, per cent of control (GRK7 (human))?
A: 2.9%

Q: And the kinase still bound, per cent of control (MKNK2 (human))?
A: 4.5%

Q: What about the kinase still bound, per cent of control (NLK (human)) of the same molecule?
A: 10%

Q: What about the kinase still bound, per cent of control (RIOK1 (human)) of the same molecule?
A: 100%

Q: And the kinase still bound, per cent of control (TEK (human))?
A: 21%

Q: What about the kinase still bound, per cent of control (ULK2 (human)) of the same molecule?
A: 39%

Q: And the kinase still bound, per cent of control (LCK (human))?
A: 0.95%

Q: And the kinase still bound, per cent of control (PAK7 (human))?
A: 8.6%

Q: What about the per cent of control (CDK4 CCND3 (human)) of the same molecule?
A: 57%

Q: What about the kinase still bound, per cent of control (RPS6KA1 KD2 (human)) of the same molecule?
A: 46%

Q: What about the kinase still bound, per cent of control [3] of the same molecule?
A: 0.95%

Q: What about the kinase still bound, per cent of control (MAK (human)) of the same molecule?
A: 99%

Q: What about the kinase still bound, per cent of control (NEK4 (human)) of the same molecule?
A: 90%

Q: And the kinase still bound, per cent of control (MELK (human))?
A: 10%

Q: What about the kinase still bound, per cent of control (MARK1 (human)) of the same molecule?
A: 81%

Q: What about the kinase still bound, per cent of control (MAP4K4 (human)) of the same molecule?
A: 38%

Q: And the kinase still bound, per cent of control (AURKB (human))?
A: 85%

Q: And the kinase still bound, per cent of control (ERBB4 (human))?
A: 49%

Q: What about the kinase still bound, per cent of control (MAPK6 (human)) of the same molecule?
A: 52%

Q: And the kinase still bound, per cent of control (PKN1 (human))?
A: 85%

Q: And the kinase still bound, per cent of control (CHEK2 (human))?
A: 19%

Q: For `CCC(=O)N1CCN(c2ccc(-n3c(=O)ccc4cnc5ccc(-c6cnc7ccccc7c6)cc5c43)cc2C(F)(F)F)CC1`, which kinase still bound, per cent of control [1] is on record?
A: 70%

Q: What about the kinase still bound, per cent of control (STK32B (human)) of the same molecule?
A: 87%

Q: And the kinase still bound, per cent of control (DAPK1 (human))?
A: 96%

Q: And the kinase still bound, per cent of control (EPHA4 (human))?
A: 90%

Q: What about the kinase still bound, per cent of control (STK17B (human)) of the same molecule?
A: 67%

Q: What about the per cent of control (CDK9 (human)) of the same molecule?
A: 94%

Q: And the kinase still bound, per cent of control (SYK (human))?
A: 78%

Q: What about the kinase still bound, per cent of control (PKN3 (M.tuberculosis)) of the same molecule?
A: 64%

Q: What about the kinase still bound, per cent of control (PRKX (human)) of the same molecule?
A: 83%

Q: And the kinase still bound, per cent of control (MAPKAPK2 (human))?
A: 100%

Q: And the kinase still bound, per cent of control (PIK3CD (human))?
A: 51%

Q: What about the kinase still bound, per cent of control (CAMK1D (human)) of the same molecule?
A: 88%

Q: What about the kinase still bound, per cent of control (PIM3 (human)) of the same molecule?
A: 96%

Q: And the kinase still bound, per cent of control (FLT4 (human))?
A: 74%

Q: What about the kinase still bound, per cent of control [2] of the same molecule?
A: 1%

Q: What about the kinase still bound, per cent of control (ACVR2B (human)) of the same molecule?
A: 42%

Q: What about the kinase still bound, per cent of control (FGFR3 (human)) of the same molecule?
A: 42%

Q: What about the kinase still bound, per cent of control (WEE2 (human)) of the same molecule?
A: 100%

Q: And the kinase still bound, per cent of control (MYLK2 (human))?
A: 40%

Q: And the kinase still bound, per cent of control (PRKCH (human))?
A: 92%

Q: What about the kinase still bound, per cent of control (GRK7 (human)) of the same molecule?
A: 100%

Q: What about the kinase still bound, per cent of control (MKNK2 (human)) of the same molecule?
A: 54%

Q: What about the kinase still bound, per cent of control (NLK (human)) of the same molecule?
A: 25%

Q: What about the kinase still bound, per cent of control (RIOK1 (human)) of the same molecule?
A: 81%

Q: What about the kinase still bound, per cent of control (TEK (human)) of the same molecule?
A: 19%

Q: And the kinase still bound, per cent of control (ULK2 (human))?
A: 75%

Q: And the kinase still bound, per cent of control (LCK (human))?
A: 77%

Q: What about the kinase still bound, per cent of control (PAK7 (human)) of the same molecule?
A: 87%

Q: And the per cent of control (CDK4 CCND3 (human))?
A: 87%

Q: And the kinase still bound, per cent of control (RPS6KA1 KD2 (human))?
A: 100%

Q: And the kinase still bound, per cent of control [3]?
A: 65%

Q: What about the kinase still bound, per cent of control (MAK (human)) of the same molecule?
A: 68%

Q: And the kinase still bound, per cent of control (NEK4 (human))?
A: 86%

Q: And the kinase still bound, per cent of control (MELK (human))?
A: 50%

Q: What about the kinase still bound, per cent of control (MARK1 (human)) of the same molecule?
A: 100%

Q: And the kinase still bound, per cent of control (MAP4K4 (human))?
A: 5.2%

Q: And the kinase still bound, per cent of control (AURKB (human))?
A: 82%

Q: And the kinase still bound, per cent of control (ERBB4 (human))?
A: 100%

Q: And the kinase still bound, per cent of control (MAPK6 (human))?
A: 1.8%

Q: And the kinase still bound, per cent of control (PKN1 (human))?
A: 92%

Q: What about the kinase still bound, per cent of control (CHEK2 (human)) of the same molecule?
A: 100%
